Test results taken from patent US20080234244A1, “CU[…] AND USES THEREOF” (priority 2007, published 2008).

Experiments:
[1] = system: Human leukemia cell lines CCRF-CEM, K562, MOLT-4, RPMI-8226 and SR; test: Cell proliferation assay using SRB, 5 human leukemia cell lines; assay type: cell-based; conditions: 48 hours treatment, range over the 5 cell lines, read-out: GI50 (growth inhibition), all leukemia cell lines
Procedure: (§1) Human leukemia cell lines CCRF-CEM, K562, MOLT-4, RPMI-8226 and SR, purchased from the National Cancer Institute (NCI), were cultured in RPMI 1640 medium supplemented with 5% (v/v) fetal […] and 100 units/ml penicillin and 100 units/ml streptomycin in a humidified 5% CO2 atmosphere at 37° C.
(§2) All 5 human leukemia cells were screened by the cell proliferation assay using SRB to quantitative cell protein mass following cucurbitacin B treatment. The experiments were repeated in triplicate. Appropriate number of cells (depends on the doubling time of cells) were seeded into a 96-well tissue culture plate and growth in the indicated medium in presence of different dosages of cucurbitacin B for 2 days. Afterwards 25 μl 80% TCA reagent was added into each well to fix the cells and the plates were incubated at 4° C. at least for 1 hour. Then the plates were washed with tap water and air dried. […] The plates were air dried and dissolved by 100 μl 10 mM Trizma-base solution and the absorbance was measured at 515 nm using FLUOstar OPTIMA equipment.
(§3) Appropriate number of cell density were seeded into a 96 well culture plate and treated with different doses of cucurbitacin B for 2 days. The growth inhibition effects of cucurbitacin B on the cells were detected using SRB.

K562 = test: Cell proliferation assay using SRB, K562; assay type: cell-based; conditions: Homo sapiens, K562, 48 hours treatment, read-out: GI50 (growth inhibition)
Procedure: as §1, §2, §3

K562 cells [2] = test: Flow cytometry for apoptosis analysis (Annexin V / PI); assay type: cell-based, human; conditions: 80 nM, 48 hours, K562, Anx.V/PI
Procedure: (§4) 10^5/ml K562 cells were treated with cucurbitacin B in the presence of complete medium containing 10% FBS for 48 hours. The changes in cell morphology were visualized using Leica DMIL (Leica Microsystem). Cells were harvested and rinsed twice with ice-cold PBS (pH7.4) and a total 2.5×10^5 K562 cells were stained with 10 μl Annexin V and 10 μl propidium iodide in 100 μl 1× binding buffer for 15 minutes in dark and then subjected to apoptosis analysis with FACSCalibar Flow cytometer system (FACS Calibur BD Flow Cytometer).
Appropriate number of cell density were seeded into T-25 culture flask and treated with different doses of cucurbitacin B for 2 days. The apoptotic effects of cucurbitacin B on the cells were detected using Flow Cytometry analysis after stained with Anx.V and PI for 15 minutes. […] Cucuribitacin B induced apoptosis in a dose dependent manner, among them, 80 nM induced the highest apoptotic effect in K562 cells, with over 50% cells in apoptotic population and 10% cells in the necrotic population (late apoptotic and necrotic phase). The effect of cucurbitacin B on apoptosis and cell cycle profile in K562 cells were analyzed using flow cytometry, as depicted in FIG. 3.

K562 cells [3] = test: Cell morphology by microscopy (Leica DMIL, 400x); assay type: cell-based, human; conditions: 48 hours
Procedure: as §4
After 48 hours of cucurbitacin B treatment, the cells were viewed using a Leica DMIL microscope at 400× magnification. […] However, the treated cells lost the rounded shape and shrank in size at the highest dose of cucurbitacin B used (80 nM).

K562 cells [4] = test: Flow cytometry for cell cycle analysis (PI); assay type: cell-based, human; conditions: 80 nM, 48 hours, K562, serum starved 24 hours
Procedure: K562 cells were serum starved for 24 hours prior to cucurbitacin B treatment. After 48 hours of treatment, the cells were collected and rinsed twice with phosphate-buffer saline and fixed with 80% ice-cold ethanol for 1 hour at 4° C. overnight.
Then, the cells were stained with propidium iodine at 1 mg/ml for 15 minutes at room temperature. The stained cells were analyzed by flow cytometry (FACS Calibur BD Flow Cytometer)
Appropriate numbers of cell density were serum starved for 24 hours prior to treatment with different doses of cucurbitacin B for 2 days. The cell cycle analysis profile of K562 cells after cucurbitacin B treatment were detected using Flow Cytometry analysis after fixed with 80% ice-cold ethanol at 4° C. and then stained with PI for 15 minutes.

[5] = system: Stat3 activation in K562 cells; test: Western blot of phosphorylated and total Stat3; assay type: cell-based, human; conditions: 50 μM
Procedure: (§5) K562 leukemia cells were serum starved for 18 hours prior to cucurbitacin B treatment. The cells were incubated at a 75-mm culture flask filled with 10 ml growth medium (RPMI with 10% FBS and 1% PS) at the cell density of 1×10^5 cells/ml in the presence or absence of cucurbitacin B for various time intervals. The drug treatment were terminated by centrifugation at 1500 rpm for 5 minutes and the cells were rinsed twice with phosphate-buffered saline and lysed at 4° C. in a lysis buffer containing 50 mM Tris-HCl, pH7.5, […], 5 mM EDTA, 40 mM NaP2O7, 1% Triton X-100, 1 mM dithiothreitol, […], 100 μM phenylmethylsulfonyl fluoride, 2 μg/ml leupeptin, 4 μg/ml aprotinin and 0.7 μg/ml pepstatin. The insoluble protein lysate were removed by centrifugation for 10 minutes at 13000 rpm. Fifteen micrograms of protein lysate was resolved using SDS-polyacryamide gel electrophoresis (PAGE) (usually 8%-12% polyacrylamide gel) and then subjected to western blot analysis. Western blots were performed with antibodies specific for phosphorylated and total Stat3, c-Raf, Mek, and Erk. The blots were developed with the Enhanced Chemiluminescence Plus (ECL Plus) detection system (Amersham).
15 μg cell lysate of each sample was separated in 8% SDS-PAGE followed by immuno-blotting with anti-Stat3 antibodies to detect the phosphorylated form of Stat3 as well as its total expression level.
Cells were serum starved for 18 hours followed by treated with 50 μM cucurbitacin B for 10 minutes, 30 minutes, 1 hour and 4 hours, respectively. 15 μg cell lysate of each sample was separated in 8% SDS-PAGE followed by immuno-blotting with anti-Stat3 antibodies to detect the phosphorylated form of Stat3 as well as its total expression level.

[6] = system: c-Raf activation in K562 cells; test: Western blot of phosphorylated and total c-Raf; assay type: cell-based, human; conditions: 50 μM, 5 minutes treatment
Procedure: as §5, with “The blots were developed with the Enhanced Chemiluminescence Plus (ECL Plus) detection system (Amersham).” left out
(§6) In order to further investigate if cucurbitacin B block the Stat3 activation is truly through Erk pathway in K562 cells, the ability of cucurbitacin B to inhibit the Ras/Raf/Mek/Erk pathway was determined by measuring Ras-GTP, phosphorylation of c-Raf, Mek1/2, Erk1/2 and Elk-1 in K562 cells. […]

[7] = system: Mek1/2 activation in K562 cells; test: Western blot of phosphorylated and total Mek1/2; assay type: cell-based, human; conditions: 50 μM, 5 minutes treatment
Procedure: as §5, with “The blots were developed with the Enhanced Chemiluminescence Plus (ECL Plus) detection system (Amersham).” left out
as §6

[8] = system: Erk1/2 activation in K562 cells; test: Western blot of phosphorylated and total Erk1/2; assay type: cell-based, human; conditions: 50 μM, 5 minutes treatment
Procedure: as §5, with “The blots were developed with the Enhanced Chemiluminescence Plus (ECL Plus) detection system (Amersham).” left out
as §6

[9] = system: Elk-1 activation in K562 cells; test: Phosphorylation of Elk-1; assay type: cell-based, human; conditions: 50 μM, 5 minutes treatment
Procedure: (§7) In order to further investigate if cucurbitacin B block the Stat3 activation is truly through Erk pathway in K562 cells, the ability of cucurbitacin B to inhibit the Ras/Raf/Mek/Erk pathway was determined by measuring Ras-GTP, phosphorylation of c-Raf, Mek1/2, Erk1/2 and Elk-1 in K562 cells. The cells were incubated with 50 μM cucurbitacin B for the indicated time intervals (2 minutes, 5 minutes, 10 minutes, 30 minutes, 1 hour and 4 hours). 15 μg cell lysates were subjected to western blot analysis for phosphorylation and total c-Raf, Mek1/2, Erk1/2.

[10] = system: Raf/Mek/Erk pathway in K562 cells; test: Western blot, Raf/Mek/Erk pathway as a whole; assay type: cell-based, human; conditions: 50 μM, after 4 hours of treatment
Procedure: as §5, with “The blots were developed with the Enhanced Chemiluminescence Plus (ECL Plus) detection system (Amersham).” left out
as §6

[11] = system: Ras-GTP activation in K562 cells; test: GTPase pull-down assay (GST-Raf1-RBD), Ras-GTP content; assay type: cell-based, human; conditions: 50 μM, 2 minutes to 4 hours
Procedure: Lysate with 500 μg protein were used to determined the Ras-GTP content by the Glutathione S-transferase (GST)-RBD (Ras-binding domain of Raf) pull down assay. The treated and control cells were lysed in lysis buffer (25 mMTris-HCl, pH7.5, 150 mM NaCl, 5 mMMgCl2, 1% NP-40, 1 mM DTT and 5% glycerol) for 5 minutes at 4° C. Soluble cell lysates were obtained by centrifuged at 17000 g for 5 minutes. 500 μg cell lysate were collected and incubated with 80 μg GST-Raf1-RBD in 50 mM Tris-HCl, pH7.2, 150 mMNaCl, 0.5% Triton X-100, 5 mMMgCl2, 1 mMDTT and 10% glycerol for 1 hour at 4° C. The beads were washed with lysis buffer for 3 times and then resuspended and boiled in 2× sample buffer at 100° C. for 5 minutes. 25 μl supernatants were collected by centrifuged at 7200 g for 2 minutes and then resolved in 15% SDS-PAGE followed by western blot analysis using anti-Ras antibody.
as §7, with “15 μg cell lysates were subjected to western blot analysis for phosphorylation and total c-Raf, Mek1/2, Erk1/2.” left out

With `CC(=O)OC(C)(C)/C=C/C(=O)[C@](C)(O)C1[C@H](O)C[C@@]2(C)C3CC=C4C(C[C@H](O)C(=O)C4(C)C)[C@]3(C)C(=O)C[C@]12C` (some centres unmarked) [cucurbitacin B] the GI50 [1] was 15.6 to 35.3 nM, the GI50 (K562) was 15.6 nM and the “cells in apoptotic population” value (K562 cells [2]) was “over 50%”. For the same molecule, the “cells in the necrotic population (late apoptotic and necrotic phase)” value (K562 cells [2]) was 10%, the “change in cell morphology” value (K562 cells [3]; 20 nM and 40 nM) was “increase in cell size” and the “change in cell morphology” value (K562 cells [3]; 80 nM) was “shrinkage of cell size”. For the same molecule, the “percentage of cells in the G2/M phase” value (K562 cells [4]) was 70%, the “time of peak inhibition of Stat3 activation” value [5] was 4 h and the “inhibition of Stat3 activation, time course” value ([5]; 10 minutes to 30 minutes) was “No significant change”. The “inhibition of Stat3 activation, time course” value ([5]; 1 hour treatment) was “inhibited Stat3 activation”, the “inhibition of Stat3 activation (phospho-Stat3)” value ([5]; 4 hours, only the highest of 1, 5, 50 μM) was “significant inhibited” and the “inhibition of activation of c-Raf” value [6] was “significantly inhibited”. For the same molecule, the “inhibition of activation of Mek1/2” value [7] was “significantly inhibited”, the “inhibition of activation of Erk1/2” value [8] was “significantly inhibited” and the “inhibition of activation of Elk-1” value [9] was “significantly inhibited”. The “inhibition of the Raf/Mek/Erk pathway” value [10] was “Complete inhibition” and the “change of Ras-GTP activation” value [11] was “no significant change”.
